Reference: US20180071242A1, “SUBSTITUTED ACYLANILIDES AND METHODS OF USE THEREOF” (University of Tennessee Research Foundation, priority 2006, published 2018)
Entries after “also recorded” stand apart in the source; their conditions may differ. Read-outs that look alike come from different tables or passages of the source.

Assays:
[1] = system: intact male Sprague-Dawley rats; assay: Anabolic and androgenic activity in intact male rats; type: in vivo, rat
Method: (§1) Anabolic and androgenic efficacy of compound of formula (I) administered by daily oral gavage were tested. The S-isomer of compound (I) [S-(I)] was synthesized and tested as described herein.
The test article for this study was weighed and dissolved in 10% DMSO (Fischer) diluted with PEG 300 (Acros Organics, NJ) for preparation of the appropriate dosage concentrations. The animals were housed in groups of 2 to 3 animals per cage. Animals were randomly assigned to one of seven groups consisting of 4 to 5 animals per group. Control groups (intact and ORX) were administered vehicle daily. S-(I) was administered via oral gavage at doses of 0.01, 0.03, 0.1, 0.3, 0.75, and 1 mg/day to both intact and ORX groups. Where appropriate, animals were castrated on day one of the study. […]
The animals were sacrificed under anesthesia (ketamine/xyalzine, 87:13 mg/kg) and body weights were recorded. In addition, ventral prostate, seminal vesicles, and levator ani muscle were removed, individually weighed, normalized to body weight, and expressed as a percentage of intact control. […] Ventral prostate and seminal vesicle weights were evaluated as a measure of androgenic activity, whereas levator ani muscle weight was evaluated as a measure of anabolic activity. […] Serum luteinizing hormone (LH) and follicle stimulating hormone (FSH) concentrations were determined.

[2] = system: orchidectomized (ORX) male Sprague-Dawley rats; assay: Anabolic and androgenic activity in castrated (ORX) male rats; type: in vivo, rat; conditions: for Seminal vesicles weight: castrated (ORX) rats, oral gavage; for Anabolic ratio (muscle/prostate weight): castrated rats
Method: as §1
The test article for this study was weighed and dissolved in 10% DMSO (Fischer) diluted with PEG 300 (Acros Organics, NJ) for preparation of the appropriate dosage concentrations. The animals were housed in groups of 2 to 3 animals per cage. Animals were randomly assigned to one of seven groups consisting of 4 to 5 animals per group. Control groups (intact and ORX) were administered vehicle daily. S-(I) was administered via oral gavage at doses of 0.01, 0.03, 0.1, 0.3, 0.75, and 1 mg/day to both intact and ORX groups. Where appropriate, animals were castrated on day one of the study. Treatment with S-(I) began nine days post ORX and was administered daily via oral gavage for fourteen days.
The animals were sacrificed under anesthesia (ketamine/xyalzine, 87:13 mg/kg) and body weights were recorded. In addition, ventral prostate, seminal vesicles, and levator ani muscle were removed, individually weighed, normalized to body weight, and expressed as a percentage of intact control. Student's T-test was used to compare individual dose groups to the intact control group. Significance was defined a priori as a P-value <0.05. Ventral prostate and seminal vesicle weights were evaluated as a measure of androgenic activity, whereas levator ani muscle weight was evaluated as a measure of anabolic activity. Blood was collected from the abdominal aorta, centrifuged, and sera were frozen at −80° C. prior to determination of serum hormone levels. Serum luteinizing hormone (LH) and follicle stimulating hormone (FSH) concentrations were determined.

[3] = Metabolic stability measured in human liver microsomes; type: in vitro ADME; conditions: for microsomal CLint at 0.6 μM: human, pH 7.4, human liver microsomes
Method: Metabolic stability assays were performed in order to assess the in vitro half-life of the S-isomer of compound of formula (I) [S-(I)] when incubated with human liver microsomes. Intrinsic clearance values were extrapolated. Permeability of the compound across human, intestinal epithelial monolayers (Caco-2 cells) was assessed as a measure of intestinal permeability as well as an indicator of efflux potential. Caco-2 cells are often used as an early screening surrogate for oral bioavailability. Microsomal half-life can be converted to in vitro clearance values as a means to predict hepatic intrinsic clearance. Intrinsic clearance is defined as the functional ability of the liver to metabolize a drug or other compound.
S-(I) in this study was incubated at a final concentration of 0.6 μM. Microsome reactions were performed under either Phase I or “Phase I and II” conditions, where indicated. Compound stocks (10 mM ACN) were initially diluted to a concentration of 60 μM (in 60% ACN/H2O) resulting in a “working stock” solution of 100×. Human liver microsomes were utilized at a final concentration of […]. Duplicate wells were used for each time point (0, 6, 10, 30, and 60 minutes). Reactions were carried out at 37° C. in a shaking water bath, and the final concentration of solvent was kept constant at 0.6%. The final volume for each reaction was 600 μl, comprised of […] of 100 mM KPO4 buffer, (pH 7.4); 12.6 μl of HLM (from a 20 mg/ml stock); 6 μl of 100× “working stock” drug compound, and 126 μl of NRS “master mix” solution. At each time point, 100 μl of reaction was removed and added to a sample well containing 100 μl of ice-cold, 100% ACN (plus internal standards), to stop the reaction. The NRS “master mix” is a solution of glucose 6-phosphate dehydrogenase, NADP^+, MgCl2, and glucose 6-phosphate, prepared per manufacturer's instructions (BD Biosciences, Waltham, Mass.). Each […] stock of NRS “master mix” solution contains 3.8 ml H2O, 1.0 ml solution “A” (Cat. #461220), and 0.2 ml solution “B” (Cat. #461200). Human liver microsomes (lot #0610279, Xenotech Corp.) represented a pool of 60 donors.
Samples were centrifuged at 3,000 rpm for 10 minutes at 4° C. to remove debris and precipitated protein. […] The concentration of parent drug remaining in each well (expressed as percent remaining versus Time ‘0’, at the beginning of the reaction) was measured by LC/MS, as detailed below.
All samples were analyzed on the MDS/Sciex API4000 Q Trap system with electrospray ionization (ESI) in the positive or negative SIM mode, depending on the compounds. […] The percentage of parent drug compound remaining after each time point was determined relative to the initial measured concentration at the beginning of the reaction (T0 min). […]

Pharmacokinetics in dogs = type: in vivo; conditions: beagle dogs
Method: In order to determine the pharmacokinetics of the S-isomer of the compound of formula (I) [S-(I)], the compound was administered to beagle dogs perorally, and circulating plasma levels, terminal elimination half-life (t1/2), total body clearance (CL), terminal volume distribution (Vz) and absolute bioavailability (F %) (Table 4) were determined.

[4] = system: DMD (−/−) UTRN (+/+) mice; assay: mdx mouse model of Duchenne muscular dystrophy
[5] = castrated mdx mice, 10 mg/kg/day subcutaneously, 12 weeks
[6] = castrated mdx mice, 10 mg/kg/day subcutaneously, 12 weeks, 10 mg/kg/day

C[C@](O)(COc1ccc(C#N)cc1)C(=O)Nc1ccc(C#N)c(Cl)c1 [S-(I), (S)—N-(3-chloro-4-cyanophenyl)-3-(4-cyanophenoxy)-2-hydroxy-2-methylpropanamide]
Seminal vesicles weight (in words) [1]: decreases | Seminal vesicles weight ([2]; 0.01 mg/day): 10%±3% | Seminal vesicles weight ([2]; 0.03 mg/day): 13%±4% | Seminal vesicles weight ([2]; 0.1 mg/day): 21%±6% | Seminal vesicles weight ([2]; 0.3 mg/day): 43%±8% | Seminal vesicles weight ([2]; 0.75 mg/day): 51%±9% | Seminal vesicles weight ([2]; 1 mg/day): 69%±14% | Anabolic ratio (muscle/prostate weight) ([2]; 0.01 mg/day): 3.02 | Anabolic ratio (muscle/prostate weight) ([2]; 0.03 mg/day): 2.13 | Anabolic ratio (muscle/prostate weight) ([2]; 0.1 mg/day): 2.27 | Anabolic ratio (muscle/prostate weight) ([2]; 0.3 mg/day): 1.90 | Anabolic ratio (muscle/prostate weight) ([2]; 0.75 mg/day): 1.83 | Anabolic ratio (muscle/prostate weight) ([2]; 1 mg/day): 1.51 | Half Life (minutes) Phase I only ([3]; Phase I only): Stable | microsomal CLint at 0.6 μM ([3]; Phase I + II, read-out: CLint (μl/min/mg) Phase I + II): 2 µL/min/mg | microsomal CLint at 0.6 μM ([3]; Phase I only, read-out: CLint (μl/min/mg) Phase I only): < 1 µL/min/mg | half-life at 0.6 μM ([3]; pH 7.4, Phase I + II): 5.81 h | Absorption (in words) (Pharmacokinetics in dogs; perorally): rapidly and completely absorbed | bioavailability (Pharmacokinetics in dogs; dog, plasma, oral, perorally, read-out: F%, absolute bioavailability): 96.2% | clearance (Pharmacokinetics in dogs; dog, plasma, oral, read-out: CL, total body clearance): 1.68 ± 0.13 mL/min/kg | Vd (Pharmacokinetics in dogs; dog, plasma, oral, read-out: Vz, terminal volume distribution): 1.52 ± 0.142 L/kg | half-life (Pharmacokinetics in dogs; dog, plasma, oral, read-out: t½, terminal elimination half-life (converted)): 10.4 ± 0.5 h | Fat mass (in words) [4, 5]: decrease | Grip strength (in words) [4, 5]: significant increase | Body weight (in words) [4, 6]: increased; also recorded: significant increase | Lean [muscle] mass (in words) [4, 6]: increased; also recorded: significant increase | Body weight (in words) ([4]; intact mdx mice): increased | Lean mass (in words) ([4]; intact mdx mice): increased
